Tests used:
[1] = S. Cuzzocrea et al., Br. J. Pharmacol. 1997; cited from earlier work
[2] = tested on: poly(ADP-ribose) polymerase or PARP (EC 2.4.2.30); experiment: Inhibition of the enzyme poly(ADP-ribose) polymerase (ELISA / HTRF assay); assay type: biochemical, human or bovine
Experimental: The inhibitory effect of the substituted benzimidazoles I and II can be determined using an enzyme assay disclosed in the literature, with a Ki being determined as gauge of the effect. The benzimidazoles I and II were measured in this way for an inhibitory effect on the enzyme poly(ADP-ribose) polymerase or PARP (EC 2.4.2.30).
Inhibition of the Enzyme poly(ADP-ribose) Polymerase or PARP (EC 2.4.2.30)
A 96-well microtiter plate (FALCON Micro-Test IIIä Flexible Assay Plate, #3912) was coated with histones (SIGMA, H-7755). Histones were for this purpose dissolved in carbonate buffer (0.05 M […]; pH 9.4) in a concentration of 50 μg/ml. The individual wells of the microtiter plate were each incubated with 150 μl of this histone solution at room temperature for at least 2 hours or at 4° C. overnight. The wells are then blocked by adding 150 μl of a 1% strength BSA solution (SIGMA, A-7888) in carbonate buffer at room temperature for 2 hours. This is followed by three washing steps with washing buffer (0.05% […] in 1×PBS; PBS (phosphate buffered saline; Gibco, Order No. 10010): 0.21 g/l KH2PO4, 9 g/l NaCl, 0.726 g/l Na2HPO4.7H2O, pH 7.4). Washing steps were all carried out in a microtiter plate washer (“Columbus” microtiter plate washer, SLT-Labinstruments, Austria).
Required for the enzyme reaction were an enzyme reaction solution and a substrate solution, in each case as a premix. The absolute amount of these solutions depended on the intended number of assay wells.
Composition of the enzyme reaction solution per well:
4 μl of PARP reaction buffer (1 M tris-HCl pH 8.0, 100 mM MgCl2, 10 mM DTT)
20 ng of PARP (human or bovine)
4 μl of activated DNA (1 mg/ml; SIGMA, D-4522)
Composition of the substrate solution per well:
5 μl of PARP reaction buffer (10×)
0.8 μl of NAD solution (10 mM, SIGMA N-1511)
Inhibitors were dissolved in 1× PARP reaction buffer. DMSO, which was occasionally used to dissolve inhibitors in higher concentrations, was no problem up to a final concentration of 2%. For the enzyme reaction, 40μl of the enzyme reaction solution were introduced into each well and incubated with 10 μl of inhibitor solution for 10 minutes. The enzyme reaction was then started by adding 50 μl of substrate solution per well. The reaction was carried out at room temperature for 30 minutes and then stopped by washing three times with washing buffer.
The primary antibodies employed were specific anti-poly(ADP-ribose) antibodies in a dilution of 1:5000. Dilution took place in antibody buffer (1% BSA in PBS; 0.05% Tween20). Incubation time for the primary antibody was one hour at room temperature. […] This was followed by immediate measurement in an ELISA plate reader (EAR340AT “Easy Reader”, SLT-Labinstruments, Austria) (450 nm versus 620 nm).
Various concentrations were used to construct a dose-effect plot to determine the Ki of an inhibitor. […] Arithmetic means are determined using Microsoft© Excel. The IC50 is determined using the Microcal© Origin Software (Vers. 5.0) (“Sigmoidal Fit”). Conversion of the IC50 values calculated in this way into Ki values took place by using “calibration inhibitors”. The “calibration inhibitors” were also measured in each analysis. […]

[3] = Determination of the solubility in water; assay type: physicochemical; conditions: pH 5-6 adjusted with sodium acetate solution
Experimental: Determination of the Solubility in Water
A compound to be measured is dissolved directly in a fixed volume of water, and the resulting solution is adjusted to pH 5-6 with a sodium acetate solution so that the active ingredient concentration to be tested is reached. If the measured substance is not in the form of a water-soluble salt, it was dissolved in the minimum amount of dimethyl sulfoxide and then diluted with water (final dimethyl sulfoxide concentration≦1%), after which the pH was again adjusted.

[4] = molecular target: PARP II (Homo sapiens, UniProt Q9UGN5); experiment: Inhibition of the enzyme PARP II; assay type: biochemical; conditions: PARP versus PARP II
Sequence of PARP II (Q9UGN5 whole entry): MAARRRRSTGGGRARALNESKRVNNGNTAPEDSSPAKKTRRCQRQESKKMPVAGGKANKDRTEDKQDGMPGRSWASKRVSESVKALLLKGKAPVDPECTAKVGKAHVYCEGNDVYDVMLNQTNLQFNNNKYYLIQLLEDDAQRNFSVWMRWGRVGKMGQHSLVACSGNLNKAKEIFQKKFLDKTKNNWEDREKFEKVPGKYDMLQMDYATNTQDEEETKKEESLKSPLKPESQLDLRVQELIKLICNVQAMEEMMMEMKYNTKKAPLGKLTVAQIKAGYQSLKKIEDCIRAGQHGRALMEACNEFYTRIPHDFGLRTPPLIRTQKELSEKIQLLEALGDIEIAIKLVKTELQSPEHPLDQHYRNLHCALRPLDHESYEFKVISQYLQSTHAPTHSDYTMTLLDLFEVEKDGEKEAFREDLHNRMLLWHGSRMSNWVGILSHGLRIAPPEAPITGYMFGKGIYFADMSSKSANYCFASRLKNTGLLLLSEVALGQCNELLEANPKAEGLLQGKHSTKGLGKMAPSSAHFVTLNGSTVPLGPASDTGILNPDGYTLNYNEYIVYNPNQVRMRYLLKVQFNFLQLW

| Compound | ranking as PARP inhibitor [2] | further results |
| --- | --- | --- |
| NC(=O)c1cccc(N)c1 [3-aminobenzamide] | – | effect in a model of circulatory failure [1]: protective effects |
| CCN(CC)CCN(C)c1ccc(-c2nc3c(C(N)=O)cccc3[nH]2)cn1.Cl.Cl [Example 15, 2-(6-((2-(N,N-Diethylamino)eth-1-yl)methylamino)pyridin-3-yl)benzimidazole-4-carboxamide×2 HCl] | best PARP inhibitors | – |
| CCN(CC)CCN(C)c1cc(-c2nc3c(C(N)=O)cccc3[nH]2)ccn1.CCN(CC)CCN(C)c1cc(-c2nc3c(C(N)=O)cccc3[nH]2)ccn1.O=C(O)/C=C/C(=O)O [Example 25, 2-(2-((2-(N,N-Diethylamino)eth-1-yl)methylamino)pyridin-4-yl)benzimidazole-4-carboxamide×½ Fumaric Acid] | best PARP inhibitors | – |
| CC(C)(C)N1CCN(c2ccc(-c3nc4cccc(C(N)=O)c4[nH]3)cn2)CC1 [Example 36, 2-(2-(4-tert-Butylpiperazin-1-yl)pyridin-5-yl)benzimidazole-4-carboxamide] | best PARP inhibitors | – |
| NC(=O)c1cccc2[nH]c(-c3ccncc3)nc12 [Example 1, 2-Pyridin-4-ylbenzimidazole-4-carboxamide] | – | solubility in water [3]: > 0.5% |
| COc1ccc(-c2nc3cccc(C(N)=O)c3[nH]2)cc1 [NU 1076, reference compound] | – | solubility in water [3]: < 0.01% |
| NC(=O)c1cccc2nc(-c3ccccc3)[nH]c12 [NU 1070, 2-phenylbenzimidazole-4-carboxamide] | – | Ki values for PARP compared with PARP II (selectivity) [4]: same order of magnitude |
| CCCCN1CCN(c2ccc(-c3nc4cccc(C(N)=O)c4[nH]3)cn2)CC1.Cl [Example 37, 2-(2-(4-n-Butylpiperazin-1-yl)pyridin-5-yl)benzimidazole-4-carboxamide×HCl] | best PARP inhibitors | – |
| CCCN1CCN(c2ccc(-c3nc4cccc(C(N)=O)c4[nH]3)cn2)CC1 [Example 16, 2-(6-(4-Propylpiperazin-1-yl)pyridin-3-yl)benzimidazole-4-carboxamide] | best PARP inhibitors | – |

Source: US6696437B1, “Heterocyclically substituted benzimidazoles, the production and application thereof” (Abbott GmbH & Co. KG, priority 1999, dated 2004)
